From ChEMBL document CHEMBL6092122, “Nonenzymatic Sequestering of Formaldehyde into the Antibiotic Methylene-Bridged Dimer Phaeochromycin F by Streptomyces sp. OUCMDZ-4982 as a Possible Multipronged Chemical Defense Mechanism” (J Nat Prod, 2024)
In brackets after ≈: the same amount, converted by molar mass. Activity calls are given as the source filed them. No cut-off for these calls is given here.

Key:
Pseudomonas aeruginosa = experiment: Antibacterial activity against Pseudomonas aeruginosa ATCC 10145 incubated for 24 hrs by microdilution method; type: functional, organism-based
Nakaseomyces glabratus = experiment: Antifungal activity against Candida glabrata ATCC 2001 incubated for 24 hrs by microdilution method; type: functional, organism-based
Escherichia coli = experiment: Antibacterial activity against Escherichia coli ATCC 11175 incubated for 24 hrs by microdilution method; type: functional, organism-based
Candida albicans = experiment: Antifungal activity against Candida albicans ATCC 10231 incubated for 24 hrs by microdilution method; type: functional, organism-based
Bacillus subtilis = experiment: Antibiotic activity against Bacillus subtilis ATCC 6051 assessed as compound dimer phaeochromycinF mediated reduction in bacterial growth in LB medium measured upto 8 days; type: functional, organism-based; details: time <= 8.0 day
Streptomyces sp. = experiment: Protection against formaldehyde-induced toxicity in Streptomyces sp. OUCMDZ-4982 cultured in Gauze medium; type: functional, organism-based
Staphylococcus aureus [1] = experiment: Antibiotic activity against Staphylococcus aureus ATCC 6538 assessed as compound dimer phaeochromycinF mediated reduction in bacterial growth in LB medium measured upto 8 days; type: functional, organism-based; details: time <= 8.0 day
[2] = Drug metabolism in Staphylococcus aureus ATCC 6538 assessed as phaeochromycinF formation incubated for 1 hr by LC-MS analysis; type: ADME
[3] = Drug metabolism in Bacillus subtilis ATCC 6051 assessed as phaeochromycinF formation incubated for 1 hr by LC-MS analysis; type: ADME
Staphylococcus aureus [4] = experiment: Antibacterial activity against Staphylococcus aureus ATCC 6538 in absence of HCHO by microdilution method; type: functional
Staphylococcus aureus [5] = experiment: Antibacterial activity against methicillin-resistant Staphylococcus aureus ATCC 43300 in absence of HCHO by microdilution method; type: functional
[6] = Chemical reactivity of compound in acetaldehyde assessed as (1S,2R,18R,19R,22S,25R,28R,40S)-48-[(2S,3R,4S,5S,6R)-3-[(2S,4S,5S,6S)-4-amino-5-hydroxy-4,6-dimethyl-tetrahydropyran-2-yl]oxy-4,5-dihydroxy-6-(hydroxymethyl)tetrahydropyran-2-yl]oxy-22-(2-amino-2-oxo-ethyl)-5,15-dichloro-2,18,32,35,37-pentahydroxy-19-[(2R,4R)-4-isobutyl-2,3-dimethyl-5-oxo-imidazolidin-1-yl]-20,23,26,42,44-pentaoxo-7,13-di …; type: physicochemical
[7] = Chemical reactivity of compound in formaldehyde assessed as (1S,2R,18R,19R,22S,25R,28R,40S)-48-[(2S,3R,4S,5S,6R)-3-[(2S,4S,5S,6S)-4-amino-5-hydroxy-4,6-dimethyl-tetrahydropyran-2-yl]oxy-4,5-dihydroxy-6-(hydroxymethyl)tetrahydropyran-2-yl]oxy-22-(2-amino-2-oxo-ethyl)-5,15-dichloro-2,18,32,35,37-pentahydroxy-19-[(4R)-4-isobutyl-3-methyl-5-oxo-imidazolidin-1-yl]-20,23,26,42,44-pentaoxo-7,13-dioxa-21, …; type: physicochemical
Staphylococcus aureus [8] = experiment: Antibacterial activity against Staphylococcus aureus ATCC 43300 incubated for 24 hrs by microdilution method; type: functional
Staphylococcus aureus [9] = experiment: Antibacterial activity against methicillin-resistant Staphylococcus aureus ATCC 43300 incubated for 24 hrs by microdilution method; type: functional
[10] = Chemical reactivity of compound in formaldehyde assessed as (4R,4aR,5aS,12aR)-9-(3-(tert-butyl)-5-oxoimidazolidin-1-yl)-4,7-bis(dimethylamino)-3,10,12,12a-tetrahydroxy-1,11-dioxo-1,4,4a,5,5a,6,11,12a-octahydrotetracene-2-carboxamide formation; type: physicochemical

SMILES | Activity (Pseudomonas aeruginosa) | Activity (Nakaseomyces glabratus) | Activity (Escherichia coli) | Activity (Candida albicans) | other results
Cc1cc(=O)c2c(Cc3cc(O)c(Cc4c(O)cc(Cc5cccc(O)c5)oc4=O)c(=O)o3)cccc2o1 | inactive | inactive | inactive | inactive | –
Cc1cc(=O)c2c(Cc3cc(O)c(Cc4c(O)cc(Cc5cc(O)cc6c5C(=O)CC(C)(O)O6)oc4=O)c(=O)o3)cccc2o1 (stereo unspecified) | inactive | inactive | inactive | inactive | –
Cc1cc(=O)c2c(Cc3cc(O)c(Cc4c(O)cc(Cc5cccc6c5C(=O)CC(C)(O)O6)oc4=O)c(=O)o3)cccc2o1 (stereo unspecified) | inactive | inactive | inactive | inactive | –
Cc1cc(=O)c2c(Cc3cc(O)c([C@H]4c5c(cc(Cc6cccc7oc(C)cc(=O)c67)oc5=O)O[C@H]4CC(=O)O)c(=O)o3)cccc2o1 | inactive | inactive | inactive | inactive | –
Cc1cc(=O)c2c(Cc3cc(O)cc(=O)o3)cccc2o1 | inactive | inactive | inactive | inactive | Activity (Bacillus subtilis): inactive; Activity (Streptomyces sp.): Active; Activity (Staphylococcus aureus [1]): Active; Drug metabolism [2]: metabolite_detected; Drug metabolism [3]: metabolite_detected
CC(C)C[C@@H]1C(=O)N([C@H]2C(=O)N[C@@H](CC(N)=O)C(=O)N[C@H]3C(=O)N[C@H]4C(=O)N[C@H](C(=O)N[C@H](C(=O)O)c5cc(O)cc(O)c5-c5cc4ccc5O)[C@H](O)c4ccc(c(Cl)c4)Oc4cc3cc(c4O[C@@H]3O[C@H](CO)[C@@H](O)[C@H](O)[C@H]3O[C@H]3C[C@](C)(N)[C@H](O)[C@H](C)O3)Oc3ccc(cc3Cl)[C@H]2O)[C@H](C)N1C | – | – | – | – | MIC (Staphylococcus aureus [4]): 64 µg/mL (≈ 43.4 µM); MIC (Staphylococcus aureus [5]): 32 µg/mL (≈ 21.7 µM)
Cc1cc(=O)c2c(Cc3cc(O)c(C(c4ccccc4)c4c(O)cc(Cc5cccc6oc(C)cc(=O)c56)oc4=O)c(=O)o3)cccc2o1 | inactive | inactive | inactive | inactive | –
CC(C)C[C@@H]1C(=O)N([C@H]2C(=O)N[C@@H](CC(N)=O)C(=O)N[C@H]3C(=O)N[C@H]4C(=O)N[C@H](C(=O)N[C@H](C(=O)O)c5cc(O)cc(O)c5-c5cc4ccc5O)[C@H](O)c4ccc(c(Cl)c4)Oc4cc3cc(c4O[C@@H]3O[C@H](CO)[C@@H](O)[C@H](O)[C@H]3O[C@H]3C[C@](C)(N)[C@H](O)[C@H](C)O3)Oc3ccc(cc3Cl)[C@H]2O)CN1C | – | – | – | – | MIC (Staphylococcus aureus [4]): 64 µg/mL (≈ 43.8 µM); MIC (Staphylococcus aureus [5]): 64 µg/mL (≈ 43.8 µM)
CCOC(=O)CC=C(c1c(O)cc(C)oc1=O)c1c(O)cc(C)oc1=O | inactive | inactive | inactive | inactive | –
CCOC(=O)/C=C/C(c1c(O)cc(C)oc1=O)c1c(O)cc(C)oc1=O | inactive | inactive | inactive | inactive | –
CN(C)c1cc(NC(=O)CNC(C)(C)C)c(O)c2c1C[C@H]1C[C@H]3[C@H](N(C)C)C(O)=C(C(N)=O)C(=O)[C@@]3(O)C(O)=C1C2=O [TIGECYCLINE] | – | – | – | – | Activity [6]: Active; Activity [7]: Active; MIC (Staphylococcus aureus [8]): 0.5 µg/mL (≈ 0.854 µM); MIC (Staphylococcus aureus [9]): 0.5 µg/mL (≈ 0.854 µM); Activity [10]: Active
